Counter-ions that a name gives are not always drawn.
Key:
[1] = target: T1, GKRP (Glucokinase Regulatory Protein) with human His-hepatic GK (Homo sapiens, UniProt Q14397); assay: GKRP NADPH Coupled Assay; type: biochemical; conditions: GK-GKRP EC50 (NADPH-coupled), indirect measure of glucose-6-phosphate, fluorescence; 1 μM GKRP (10×), 20 nM GK (5×)
T1 sequence (Q14397 1-625): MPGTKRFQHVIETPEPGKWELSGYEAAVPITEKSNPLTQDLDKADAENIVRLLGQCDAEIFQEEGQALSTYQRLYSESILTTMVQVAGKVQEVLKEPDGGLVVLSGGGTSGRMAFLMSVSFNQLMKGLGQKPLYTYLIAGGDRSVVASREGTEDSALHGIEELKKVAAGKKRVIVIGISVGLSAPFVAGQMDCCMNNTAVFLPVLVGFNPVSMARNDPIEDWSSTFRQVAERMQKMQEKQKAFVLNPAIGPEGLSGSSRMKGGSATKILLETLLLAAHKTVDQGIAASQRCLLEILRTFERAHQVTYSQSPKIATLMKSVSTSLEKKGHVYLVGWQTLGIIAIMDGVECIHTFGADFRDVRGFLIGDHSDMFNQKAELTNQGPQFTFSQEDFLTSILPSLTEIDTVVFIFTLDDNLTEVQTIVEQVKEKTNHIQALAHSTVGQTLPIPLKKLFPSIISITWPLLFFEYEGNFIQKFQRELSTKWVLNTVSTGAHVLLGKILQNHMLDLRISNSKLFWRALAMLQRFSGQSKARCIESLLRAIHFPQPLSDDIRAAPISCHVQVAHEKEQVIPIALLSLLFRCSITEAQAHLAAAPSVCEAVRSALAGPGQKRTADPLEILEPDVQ
Summary of the method: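 Human His-hepatic GK (5× stock 20 nM) in 50 mM Tris pH 7.5, 4 mM MgCl2, 6% DMSO, 0.1% BSA, 0.01% Brij-35, with GKRP and compound preincubated 30 min, then reaction 1 h at RT. Glucose-6-phosphate read indirectly via G6P dehydrogenase-coupled NADPH formation from β-NADP (2× stop/detection reagent, pH 9.2, 5 min).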

[2] = target: T1, GKRP (Glucokinase Regulatory Protein) with human His-hepatic GK; assay: GKRP LC MS/MS Biochemical Assay; conditions: GK-GKRP EC50 (LC MS/MS), 13C-glucose-6-phosphate formation; 1 μM GKRP (10×), 30 nM GK (5×)
Summary of the method: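 Human His-hepatic GK (working stock 30 nM, 5×) with GKRP in 50 mM Tris pH 7.5, 4 mM MgCl2, 6% DMSO, DTT, BSA and Brij-35. After a 30 min preincubation, GK was added and the reaction ran 30 min at room temperature. Stopped with acetonitrile; 13C-glucose-6-phosphate formed from 13C-glucose quantified by LC MS/MS.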

| Structure (SMILES) | EC50 [1] [nM] | EC50 [2] [nM] |
| --- | --- | --- |
| CC(O)(c1ccc(N2CCN(S(=O)(=O)c3cccs3)CC2CN2CCC(F)(F)CC2)cc1)C(F)(F)F (mixture of isomers) [Example 51, 2-(4-(2-((4,4-difluoro-1-piperidinyl)methyl)-4-(2-thiophenylsulfonyl)-1-piperazinyl)phenyl)-1,1,1-trifluoro-2-propanol] | 1050 | 1530 |
| CC(O)(c1ccc(N2CCN(S(=O)(=O)c3cccs3)CC2Cc2ccccc2F)cc1)C(F)(F)F (mixture of isomers) [Example 38, 1,1,1-trifluoro-2-(4-(2-(2-fluorobenzyl)-4-(2-thiophenylsulfonyl)-1-piperazinyl)phenyl)-2-propanol] | 515 | 850 |
| O=S(=O)(c1ccccc1)N1CCN(c2ccc(C(O)(C(F)(F)F)C(F)(F)F)cc2)CC1 [Example 2, 1,1,1,3,3,3-hexafluoro-2-(4-(4-(phenylsulfonyl)-1-piperazinyl)phenyl)-2-propanol] | 803 | 1100 |
| Cc1ccc(CC2CN(S(=O)(=O)c3cccs3)CCN2c2ccc(C(O)(C(F)(F)F)C(F)(F)F)cc2)cc1 (racemic) [Example 43, 1,1,1,3,3,3-hexafluoro-2-(4-(2-(4-methylbenzyl)-4-(2-thiophenylsulfonyl)-1-piperazinyl)phenyl)-2-propanol hydrochloride] | 2500 | 2620 |
| O=S(=O)(c1ccccc1)c1ccc(-c2ccc(C(O)(C(F)(F)F)C(F)(F)F)cc2)cc1 [Example 21, 1,1,1,3,3,3-hexafluoro-2-(4′-(phenylsulfonyl)-4-biphenylyl)-2-propanol] | 1660 | 3960 |
| Cc1cccc(CC2CN(S(=O)(=O)c3cccs3)CCN2c2ccc(C(O)(C(F)(F)F)C(F)(F)F)cc2)c1 (racemic) [Example 42, 1,1,1,3,3,3-hexafluoro-2-(4-(2-(3-methylbenzyl)-4-(2-thiophenylsulfonyl)-1-piperazinyl)phenyl)-2-propanol hydrochloride] | 724 | 688 |
| O=S(=O)(c1cccs1)N1CCN(c2ccc(C(O)(C(F)(F)F)C(F)(F)F)cc2-c2cccnc2)CC1 [Example 72, 1,1,1,3,3,3-hexafluoro-2-(3-(3-pyridinyl)-4-(4-(2-thiophenylsulfonyl)-1-piperazinyl)phenyl)-2-propanol] | 775 | 783 |
| O=S(=O)(c1c[nH]cn1)N1CCN(c2ccc(C(O)(C(F)(F)F)C(F)(F)F)cc2)CC1 [Example 60, 1,1,1,3,3,3-hexafluoro-2-(4-(4-(1H-imidazol-4-ylsulfonyl)-1-piperazinyl)phenyl)-2-propanol] | 2340 | 2320 |
| CC(O)(c1ccc(N2CCN(S(=O)(=O)c3ccccc3)CC2)cc1)C(F)(F)F (single isomer, unassigned) [Example 24 Peak #1, 1,1,1-trifluoro-2-(4-(4-(phenylsulfonyl)-1-piperazinyl)phenyl)-2-propanol] | 2570 | 2070 |
| O=S(=O)(c1cccs1)N1CCN(c2ccc(C(O)(C(F)(F)F)C(F)(F)F)cc2-c2cccc(F)c2)CC1 [Example 71, 1,1,1,3,3,3-hexafluoro-2-(3′-fluoro-6-(4-(2-thiophenylsulfonyl)-1-piperazinyl)-3-biphenylyl)-2-propanol] | 3670 | 1840 |
| CC(O)(c1ccc(N2CCN(S(=O)(=O)c3cccs3)CC2CC2CCOCC2)cc1)C(F)(F)F (single isomer, unassigned) [Example 37 Peak #1, 1,1,1-trifluoro-2-(4-(2-(tetrahydro-2H-pyran-4-ylmethyl)-4-(2-thiophenylsulfonyl)-1-piperazinyl)phenyl)-2-propanol] | 111 | 162 |
| C[C@H]1CN(S(=O)(=O)c2nnc(N)s2)CCN1c1ccc(C(C)(O)C(F)(F)F)cc1 (mixture of isomers) [Example 35, 2-(4-((2S)-4-((5-amino-1,3,4-thiadiazol-2-yl)sulfonyl)-2-methyl-1-piperazinyl)phenyl)-1,1,1-trifluoro-2-propanol] | 3040 | 5620 |
